Test results reported in ChEMBL document CHEMBL5500414 (J Med Chem, 2024).

Legend:
BCL2A1/BID [1] = biological target: T1, BCL2A1/BID (Homo sapiens, UniProt Q16548)
T1 sequence (Q16548 whole entry): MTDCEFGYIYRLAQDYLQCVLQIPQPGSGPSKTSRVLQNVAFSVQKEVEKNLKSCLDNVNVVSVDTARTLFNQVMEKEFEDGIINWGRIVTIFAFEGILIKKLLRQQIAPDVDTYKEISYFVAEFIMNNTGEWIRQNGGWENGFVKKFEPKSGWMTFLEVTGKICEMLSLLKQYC
T1 sequence (P55957 whole entry): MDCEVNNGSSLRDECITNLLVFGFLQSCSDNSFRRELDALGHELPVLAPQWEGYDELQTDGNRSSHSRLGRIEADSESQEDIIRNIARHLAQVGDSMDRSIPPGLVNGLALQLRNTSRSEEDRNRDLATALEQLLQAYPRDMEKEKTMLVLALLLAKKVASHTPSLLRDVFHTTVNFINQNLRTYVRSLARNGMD
Description: Inhibition of BFL-1 (unknown origin)/FITC-conjugated Bid BH3 peptide (unknown origin) interaction by fluorescence polarization assay

MV4-11 = assay: Antiproliferative activity against human MV4-11 cells expressing high BCL-2 assessed as cell viability measured after 72 hrs by Cell Counting Kit-8 assay; conditions: MV4-11, 72 h
Pfeiffer = assay: Antiproliferative activity against human Pfeiffer cells expressing high BCL-2/BFL-1 assessed as cell viability measured after 72 hrs by Cell Counting Kit-8 assay
BCL2A1/BID [2] = biological target: T1, BCL2A1/BID; remark: listed apart in the source
[3] = biological target: Induced myeloid leukemia cell differentiation protein Mcl-1/BH3-interacting domain death agonist (Homo sapiens, UniProt Q07820)
Description: Inhibition of MCL-1 (unknown origin)/FAM-BID (unknown origin) interaction measured by fluorescence polarization assay

Bcl-2-related protein A1 [4] = biological target: Bcl-2-related protein A1 (Homo sapiens, UniProt Q16548, C55A); assay: Binding affinity to BFL-1 C55A mutant (unknown origin) assessed as inhibition constant by fluorescence polarization assay
[5] = Glutathione reactivity assessed as half life
Bcl-2-related protein A1 [6] = biological target: T2, Bcl-2-related protein A1 (Homo sapiens, UniProt Q16548); assay: Binding affinity to wild type human BFL-1 assessed as inhibition constant by SPR assay
T2 sequence (Q16548 whole entry): T1 sequence (Q16548 whole entry)

[7] = biological target: Induced myeloid leukemia cell differentiation protein Mcl-1 (Homo sapiens, UniProt Q07820); assay: Binding affinity to MCL-1 (unknown origin) assessed as inhibition constant by time-resolved fluorescence resonance energy transfer binding affinity assays
Induced myeloid leukemia cell differentiation protein Mcl-1, sequence (Q07820 whole entry): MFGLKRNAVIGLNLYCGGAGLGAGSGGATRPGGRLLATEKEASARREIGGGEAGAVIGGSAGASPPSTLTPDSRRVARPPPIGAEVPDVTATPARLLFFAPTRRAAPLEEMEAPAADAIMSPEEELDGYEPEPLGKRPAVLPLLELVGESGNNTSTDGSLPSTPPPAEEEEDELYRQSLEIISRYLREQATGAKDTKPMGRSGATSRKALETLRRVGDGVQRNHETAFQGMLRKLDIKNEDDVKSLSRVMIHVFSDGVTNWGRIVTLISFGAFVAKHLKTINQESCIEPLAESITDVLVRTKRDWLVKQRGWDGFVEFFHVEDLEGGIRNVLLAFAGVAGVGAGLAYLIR

Induced myeloid leukemia cell differentiation protein Mcl-1/BH3-interacting domain death agonist, sequence (Q07820 whole entry, one chain of several, the tested form may be a part): as the sequence (Q07820 whole entry) above
Bcl-2-related protein A1 (Homo sapiens, UniProt Q16548, C55A), sequence (Q16548 whole entry C55A): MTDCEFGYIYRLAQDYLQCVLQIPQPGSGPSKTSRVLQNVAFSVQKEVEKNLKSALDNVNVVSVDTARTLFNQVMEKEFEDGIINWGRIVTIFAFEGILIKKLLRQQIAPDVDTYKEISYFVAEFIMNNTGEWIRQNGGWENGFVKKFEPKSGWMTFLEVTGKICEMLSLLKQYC

| Ki (BCL2A1/BID [2]) | Compound | further results |
| --- | --- | --- |
| > 20000 nM | C=CC(=O)Nc1ccc2c(c1)CCC(CN1CCN(c3ccc(C(=O)O)cc3-c3ccccc3)CC1)=C2c1ccc(Cl)cc1 | – |
| > 20000 nM | C=CC(=O)Nc1ccc2c(c1)CCC(CN1CCN(c3ccc(C(=O)NS(=O)(=O)c4ccccc4)cc3)CC1)=C2c1ccc(Cl)cc1 | – |
| 1170 nM | Nc1ccc2c(c1)CCC(CN1CCN(c3ccc(C(=O)NS(=O)(=O)c4ccc(NCC5CCOCC5)c([N+](=O)[O-])c4)c(Oc4cnc5[nH]ccc5c4)c3)CC1)=C2c1ccc(Cl)cc1 | IC50 (MV4-11): 4.42 µM; Ki [3]: 4.76 µM; IC50 (Pfeiffer): 8.9 µM |
| 373 nM | C=CC(=O)N(C)c1ccc2c(c1)CCC(CN1CCN(c3ccc(C(=O)O)cc3)CC1)=C2c1ccc(Cl)cc1 | – |
| 145 nM | C=CC(=O)Nc1ccc2c(c1)CCC(CN1CCN(c3ccc(C(=O)O)c(Oc4cnc5c(ccn5C)c4)c3)CC1)=C2c1ccc(Cl)cc1 | – |
| > 20000 nM | C=CC(=O)Nc1ccc2c(c1)CCC(CN1CCN(c3cccc(C(=O)O)c3)CC1)=C2c1ccc(Cl)cc1 | – |
| 997 nM | O=C(CCl)Nc1ccc2c(c1)CCC(CN1CCN(c3ccc(C(=O)O)cc3)CC1)=C2c1ccc(Cl)cc1 | – |
| 105 nM | C=CC(=O)Nc1ccc2c(c1)CCC(CN1CCN(c3ccc(C(=O)O)c(Oc4cnc5[nH]ccc5c4)c3)CC1)=C2c1ccc(Cl)cc1CC | IC50 (MV4-11): 12.6 µM; Ki [3]: 1.26 µM; IC50 (Pfeiffer): 6.92 µM; Ki (Bcl-2-related protein A1 [4]): 1380 nM; half-life [5]: 256 min; Ki (Bcl-2-related protein A1 [6]): 1950 nM |
| > 20000 nM | C=CC(=O)Nc1ccc2c(c1)CCC(CN1CCN(c3ccc(C(=O)NS(=O)(=O)c4ccc(NCC5CCOCC5)c([N+](=O)[O-])c4)c(Oc4cnc5[nH]ccc5c4)c3)CC1)=C2c1ccc(Cl)cc1 | IC50 (MV4-11): 1.79 µM; Ki [3]: 4.16 µM; IC50 (Pfeiffer): 7.5 µM |
| 1130 nM | CCc1cc(Cl)ccc1C1=C(CN2CCN(c3ccc(C(=O)NS(=O)(=O)c4ccc(NCC5CCOCC5)c([N+](=O)[O-])c4)c(Oc4cnc5[nH]ccc5c4)c3)CC2)CCc2cc(N)ccc21 | IC50 (MV4-11): 3.69 µM; Ki [3]: 3.3 µM; IC50 (Pfeiffer): 8.05 µM |
| 326 nM | C=CC(=O)N(C)Cc1ccc2c(c1)CCC(CN1CCN(c3ccc(C(=O)O)cc3)CC1)=C2c1ccc(Cl)cc1 | – |
| > 20000 nM | C=CC(=O)Nc1ccc2c(c1)CCC(CN1CCN(c3ccc(C(=O)O)c(N(C)CCCO)c3)CC1)=C2c1ccc(Cl)cc1 | – |
| 949 nM | C=CC(=O)Nc1ccc2c(c1)CCC(CN1CCN(c3ccc(C(=O)NS(=O)(=O)c4ccc(NCC5CCOCC5)c([N+](=O)[O-])c4)c(Oc4cnc5[nH]ccc5c4)c3)CC1)=C2c1ccc(Cl)cc1CC | IC50 (MV4-11): 2.35 µM; Ki [3]: 4.51 µM; IC50 (Pfeiffer): 7.28 µM |
| 370 nM | C=CC(=O)Nc1ccc2c(c1)CCC(CN1CCN(c3ccc(C(=O)O)c(-c4ccncc4)c3)CC1)=C2c1ccc(Cl)cc1 | – |
| > 20000 nM | C=CC(=O)Nc1ccc2c(c1)CCC(CN1CCN(c3ccc(C(=O)O)cc3-c3ccncc3)CC1)=C2c1ccc(Cl)cc1 | – |
| 178 nM | C=CC(=O)Nc1ccc2c(c1)CCC(CN1CCN(c3ccc(C(=O)O)c(-c4ccccc4)c3)CC1)=C2c1ccc(Cl)cc1 | – |
| 127 nM | C=CC(=O)Nc1ccc2c(c1)CCC(CN1CCN(c3ccc(C(=O)O)c(Oc4cnc5[nH]ccc5c4)c3)CC1)=C2c1ccc(Cl)cc1 | IC50 (MV4-11): 19.9 µM; Ki [3]: 2.36 µM; IC50 (Pfeiffer): 10.6 µM |
| 335 nM | C=CC(=O)N(CC)Cc1ccc2c(c1)CCC(CN1CCN(c3ccc(C(=O)O)cc3)CC1)=C2c1ccc(Cl)cc1 | – |
| 525 nM | C=CC(=O)Nc1ccc2c(c1)CCC(CN1CCN(c3ccc(C(=O)O)cc3)CC1)=C2c1ccc(Cl)cc1 | – |
| 913 nM | C=CC(=O)NCc1ccc2c(c1)CCC(CN1CCN(c3ccc(C(=O)O)cc3)CC1)=C2c1ccc(Cl)cc1 | – |
| > 20000 nM | C=CC(=O)Nc1ccc2c(c1)CCC(CN1CCN(c3ccc(C(=O)OCC)cc3)CC1)=C2c1ccc(Cl)cc1 | – |

The remaining lines, values behind:

| Compound | Ki (BCL2A1/BID [2]) | further results |
| --- | --- | --- |
| CN1CCN(C2=C(Cl)C(=O)N(c3ccc(Cl)c(Cl)c3)C2=O)CC1 | – | IC50 (BCL2A1/BID [1]): 400 nM |
| CCOC(=O)CS(=O)(=O)c1nc(-c2ccc(F)cc2)cc(C(F)(F)F)n1 | – | IC50 (BCL2A1/BID [1]): 2600 nM |
| CC(C)(C)c1ccc(CN2CCN(S(=O)(=O)Nc3ccc(SCCc4ccccc4)cc3C(=O)O)CC2)cc1 | 645 nM | IC50 (MV4-11): 46.2 µM; IC50 (Pfeiffer): 21.3 µM |
| C=CC(=O)N1CCN(c2c3ccc(-c4cccc(F)c4)cc3nn2Cc2ccccc2)CC1 | 465 nM | – |
| CC(=O)N[C@@H](Cc1c[nH]c2ccccc12)C(=O)NCCSSCCN(C)C | – | EC50 (BCL2A1/BID [1]): 1300 nM |
| C=CC(=O)Nc1ccc2c(c1)CCC(CN1CCN(Cc3cccc(C(=O)O)c3)CC1)=C2c1ccc(Cl)cc1 | > 20000 nM | – |
| C=CC(=O)Nc1ccc2c(c1)CCC(CN1CCN(c3ccc(C(=O)O)cc3)CC1)=C2c1ccccc1 | 781 nM | – |
| C=CC(=O)Nc1ccc2c(c1)CCC(CN1CCN(c3ccccc3C(=O)O)CC1)=C2c1ccc(Cl)cc1 | > 20000 nM | – |
| C=CC(=O)Nc1ccc2c(c1)CCC(CN1CCN(c3ccc(C(=O)O)cc3)CC1)=C2c1ccc(C#N)cc1 | > 20000 nM | – |
| C=CC(=O)Nc1ccc2c(c1)CCC(CN1CCN(c3ccc(C(=O)O)cc3)CC1)=C2c1cccc(Cl)c1 | > 20000 nM | – |
| C=CC(=O)Nc1ccc2c(c1)CCC(CN1CCN(c3ccc(C(=O)O)cc3)CC1)=C2c1ccc(NC(C)=O)cc1 | > 20000 nM | – |
| C=CC(=O)Nc1ccc2c(c1)CCC(CN1CCN(c3ccc(C(=O)O)cc3)CC1)=C2c1cccc(OC)c1 | 723 nM | – |
| C=CC(=O)Nc1ccc2c(c1)CCC(CN1CCN(c3ccc(C(=O)O)cc3)CC1)=C2c1ccc(Cl)cc1Cl | 256 nM | – |
| C=CC(=O)Nc1ccc2c(c1)CCC(CN1CCN(c3ccc(C(=O)O)cc3)CC1)=C2c1ccc(Cl)cc1F | 361 nM | – |
| C=CC(=O)Nc1ccc2c(c1)CCC(CN1CCN(c3ccc(C(=O)O)cc3)CC1)=C2c1ccc(OC)cc1 | > 20000 nM | – |
| C=CC(=O)Nc1ccc2c(c1)CCC(CN1CCN(c3ccc(C(=O)O)cc3)CC1)=C2c1ccccc1OC | > 20000 nM | – |
| C=CC(=O)Nc1ccc2c(c1)CCC(CN1CCN(c3ccc(C(=O)O)cc3)CC1)=C2c1cccc2cc[nH]c12 | > 20000 nM | – |
| C=CC(=O)Nc1ccc2c(c1)CCC(CN1CCN(c3ccc(C(=O)O)cc3)CC1)=C2c1cccc(O)c1 | > 20000 nM | – |
| C=CC(=O)N(c1ccc2c(c1)CCC(CN1CCN(c3ccc(C(=O)O)cc3)CC1)=C2c1ccc(Cl)cc1CC)C(C)C | 140 nM | – |
| C=CC(=O)Nc1ccc2c(c1)CCC(CN1CCN(c3ccc(C(=O)O)cc3)CC1)=C2c1ccc(Cl)cc1C | 251 nM | – |

| Compound | Ki (BCL2A1/BID [2]) | further results |
| --- | --- | --- |
| C=CC(=O)Nc1ccc2c(c1)CCC(CN1CCN(c3ccc(C(=O)O)cc3)CC1)=C2c1cnn(C)c1 | > 20000 nM | – |
| C=CC(=O)Nc1ccc2c(c1)CCC(CN1CCNCC1)=C2c1ccc(Cl)cc1 | > 20000 nM | – |
| C=CC(=O)N(CC)c1ccc2c(c1)CCC(CN1CCN(c3ccc(C(=O)O)cc3)CC1)=C2c1ccc(Cl)cc1CC | 110 nM | IC50 (MV4-11): 33.5 µM; IC50 (Pfeiffer): 22.9 µM |
| C=CC(=O)Nc1ccc2c(c1)CCC(CN1CCN(c3ccc(C(=O)O)cc3)CC1)=C2C1CC1 | > 20000 nM | – |
| C=CC(=O)Nc1ccc2c(c1)CCC(CN1CCN(c3ccc(C(=O)O)c(N(C)CCCN(C)C)c3)CC1)=C2c1ccc(Cl)cc1 | 774 nM | – |
| C=CC(=O)Nc1ccc2c(c1)CCC(CN1CCN(Cc3ccc(C(=O)O)cc3)CC1)=C2c1ccc(Cl)cc1 | > 20000 nM | – |
| C=CC(=O)Nc1ccc2c(c1)CCC(CN1CCN(c3ccc(C(=O)O)cc3)CC1)=C2c1ccncc1 | 5340 nM | – |
| C=CC(=O)Nc1ccc2c(c1)CCC(CN1CCN(c3ccc(C(=O)O)cc3)CC1)=C2c1ccc(Cl)cc1OC | 959 nM | – |
| C=CC(=O)Nc1ccc2c(c1)CCC(CN1CCN(c3ccc(C(=O)O)cc3)CC1)=C2c1ccccc1Cl | 409 nM | – |
| C=CC(=O)Nc1ccc2c(c1)CCC(CN1CCN(c3ccc(C(=O)O)cc3)CC1)=C2c1ccn[nH]1 | > 20000 nM | – |
| C=CC(=O)N(C)c1ccc2c(c1)CCC(CN1CCN(c3ccc(C(=O)O)cc3)CC1)=C2c1ccc(Cl)cc1CC | 218 nM | – |
| C=CC(=O)Nc1ccc2c(c1)CCC(CN1CCN(c3ccc(C(=O)O)cc3)CC1)=C2c1ccc(O)cc1 | > 20000 nM | – |
| C=CC(=O)Nc1ccc2c(c1)CCC(CN1CCN(c3ccc(C(=O)O)cc3)CC1)=C2Br | > 20000 nM | – |
| C=CC(=O)N(CCC)c1ccc2c(c1)CCC(CN1CCN(c3ccc(C(=O)O)cc3)CC1)=C2c1ccc(Cl)cc1CC | 124 nM | Ki [3]: 4.4 µM |
| C=CC(=O)Nc1ccc2c(c1)CCC(CN1CCN(c3ccc(C(=O)O)cc3)CC1)=C2c1cn[nH]c1 | > 20000 nM | – |
| C=CC(=O)Nc1ccc2c(c1)CCC(CN1CCN(c3ccc(C(=O)O)cc3)CC1)=C2c1ccc(C(=O)O)cc1 | > 20000 nM | – |
| C=CC(=O)Nc1ccc2c(c1)CCC(CN1CCN(c3ccc(C(=O)O)cc3)CC1)=C2c1ccc(Cl)cc1CC | 158 nM | – |
| CN(C)C/C=C/C(=O)Nc1cc2c(Nc3ccc(F)c(Cl)c3)ncnc2cc1O[C@H]1CCOC1 [AFATINIB] | – | half-life [5]: 13.2 min |
| C=CC(=O)Nc1cc(Nc2nccc(-c3cn(C)c4ccccc34)n2)c(OC)cc1N(C)CCN(C)C [OSIMERTINIB] | – | half-life [5]: 30.6 min |
| CC1(C)CCC(CN2CCN(c3ccc(C(=O)NS(=O)(=O)c4ccc(NCC5CCOCC5)c([N+](=O)[O-])c4)c(Oc4cnc5[nH]ccc5c4)c3)CC2)=C(c2ccc(Cl)cc2)C1 [VENETOCLAX] | – | IC50 (MV4-11): 0.44 µM; Ki [3]: 3.75 µM; IC50 (Pfeiffer): 6.26 µM; Ki [7]: > 444 nM |
